Measurements taken from the supplement of paper PMC13380429.

How the values were obtained:
Settings in all cases: 72 h
Caco-2 [1] = assay: relative viability EC50 (midpoint between 100% and the lowest measured viability); higher = less toxic
HepG2 [2] = assay: as above
U2OS [3] = assay: as above
Caco-2 [4] = assay: cell viability relative to DMSO; higher = less toxic
Vero E6 [5] = assay: as above
HepG2 [6] = assay: as above
U2OS [7] = assay: as above
Calu-3 [8] = assay: as above
Caco-2 [9] = assay: drug sensitivity score (DSS) for viability; higher = more toxic; extreme values may be limits of the assay
Vero E6 [10] = assay: as above
HepG2 [11] = assay: as above
U2OS [12] = assay: as above
Calu-3 [13] = assay: as above
Calu-3 [14] = assay: relative viability EC50 (midpoint between 100% and the lowest measured viability); higher = less toxic
Vero E6 [15] = assay: as above

Row | SMILES | relative viability EC50 (Caco-2 [1]) | relative viability EC50 (HepG2 [2]) | relative viability EC50 (U2OS [3]) | cell viability (Caco-2 [4]; 1 nM) | cell viability (Caco-2 [4]; 10 nM) | cell viability (Caco-2 [4]; 100 nM) | cell viability (Caco-2 [4]; 1000 nM) | cell viability (Caco-2 [4]; 10000 nM) | cell viability (Vero E6 [5]; 1 nM) | cell viability (Vero E6 [5]; 10 nM) | cell viability (Vero E6 [5]; 100 nM) | cell viability (Vero E6 [5]; 1000 nM) | cell viability (Vero E6 [5]; 10000 nM) | cell viability (HepG2 [6]; 1 nM) | cell viability (HepG2 [6]; 10 nM) | cell viability (HepG2 [6]; 100 nM) | cell viability (HepG2 [6]; 1000 nM) | cell viability (HepG2 [6]; 10000 nM) | cell viability (U2OS [7]; 1 nM) | cell viability (U2OS [7]; 10 nM) | cell viability (U2OS [7]; 100 nM) | cell viability (U2OS [7]; 1000 nM) | cell viability (U2OS [7]; 10000 nM) | cell viability (Calu-3 [8]; 1 nM) | cell viability (Calu-3 [8]; 10 nM) | cell viability (Calu-3 [8]; 100 nM) | cell viability (Calu-3 [8]; 1000 nM) | cell viability (Calu-3 [8]; 10000 nM) | drug sensitivity score (Caco-2 [9]) | drug sensitivity score (Vero E6 [10]) | drug sensitivity score (HepG2 [11]) | drug sensitivity score (U2OS [12]) | drug sensitivity score (Calu-3 [13]) | relative viability EC50 (Calu-3 [14]) | relative viability EC50 (Vero E6 [15])
1 | Cn1c(Nc2ccc(C(F)(F)F)cc2)nc2cc(Oc3ccnc(-c4ncc(C(F)(F)F)[nH]4)c3)ccc21 [RAF265] | 721 nM | 435 nM | 1590 nM | 100% | 98.3% | 81.8% | 66.3% | 28.8% | 102% | 99.7% | 99.8% | 77.9% | 51.6% | 92.1% | 94.7% | 80% | 44.5% | 13.2% | 94.9% | 102% | 95.3% | 87.3% | 46.5% | 98% | 91.2% | 94% | 70.9% | 62.2% | 8.8 | 5.4 | 13.1 | 4.9 | 5.6 |  | 
2 | COc1ccc2c(c1)c(CC(=O)N1CCOCC1)c(C)n2C(=O)c1ccc(Cl)cc1 [BML-190] | > 10000 nM | > 10000 nM | > 10000 nM | 91.4% | 109% | 96.7% | 101% | 85.6% |  |  |  |  |  | 102% | 102% | 104% | 88% | 94.8% | 96.2% | 101% | 106% | 99.3% | 112% | 106% | 106% | 92.7% | 108% | 96.9% | 0.2 |  | 0.5 | 0 | 0 | > 10000 nM | 
3 | Cc1cc(C)c(CNC(=O)c2cc(-c3ccc(CN4CCOCC4)cc3)cc3c2cnn3C2CCCC2)c(=O)[nH]1 | > 10000 nM | > 10000 nM | > 10000 nM | 102% | 94.2% | 96.4% | 91.1% | 92% |  |  |  |  |  | 108% | 102% | 100% | 97.3% | 85.3% | 99% | 94.5% | 101% | 94.4% | 98.7% | 98% | 96.9% | 104% | 92% | 96.3% | 0 |  | 0.5 | 0 | 0 | > 10000 nM | 
4 | CCc1nc(C(N)=O)c(Nc2ccc(N3CCC(N4CCN(C)CC4)CC3)c(OC)c2)nc1NC1CCOCC1 [gilteritinib] |  | 1360 nM | 2120 nM | 110% | 98.1% | 102% | 90.2% | 54.4% | 106% | 103% | 100% | 101% | 37.2% | 99.2% | 92.1% | 92.4% | 73.5% | 27.9% | 105% | 102% | 99.1% | 93.1% | 46% | 96.4% | 95.8% | 96.3% | 94.1% | 59.8% | 3.9 | 3.3 | 7 | 4.1 | 3 |  | 3250 nM
5 | N#CCNC(=O)c1ccc(-c2ccnc(Nc3ccc(N4CCOCC4)cc3)n2)cc1 [cyt387] |  | 2020 nM | 2600 nM | 99.5% | 103% | 101% | 103% | 61.8% | 102% | 100% | 96.6% | 94.7% | 52.5% | 109% | 105% | 101% | 88.7% | 21.6% | 99.9% | 107% | 99.4% | 95.6% | 36.6% |  |  |  |  |  | 1.6 | 3.4 | 6.2 | 4.1 |  |  | 
6 | Cc1ncc(C)n2nc([C@@H]3C[C@H]3c3nc4c5cccnc5ccn4c3C)nc12 [PDE10-IN-1] |  | > 10000 nM | > 10000 nM |  |  |  |  |  | 93.5% | 98.2% | 99.6% | 99.3% | 105% | 98.7% | 105% | 96.1% | 115% | 98.1% | 98.6% | 95.5% | 100% | 95.9% | 97.9% | 106% | 98% | 105% | 114% | 117% |  | 0 | 0 | 0 | 0 | > 10000 nM | > 10000 nM
